#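 Five concentrations, 48 hours, 96-well plates. Here, GI50 denotes the concentration required for 50% inhibition of growth.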 Activity calls are given as the source filed them. Cut-off read from the data, not from the text of the source: active = GI50 up to about 1.1 µM and inactive = higher.
# Legend:
# Assay in all cases: inhibition of tumour cell growth, NCI panel, 48 h
# SR = test system: SR
# M14 = test system: M14
# SNB-75 = test system: SNB-75
# NCI-H226 = test system: NCI-H226
# OVCAR-4 = test system: OVCAR-4
# SF-539 = test system: SF-539
# BT-549 = test system: BT-549
# SK-MEL-2 = test system: SK-MEL-2
# SK-MEL-5 = test system: SK-MEL-5
# MCF7 = test system: MCF7
# U-251 = test system: U-251
# PC-3 = test system: PC-3
# NCI-H522 = test system: NCI-H522
# OVCAR-3 = test system: OVCAR-3
# RPMI-8226 = test system: RPMI-8226
# MDA-N = test system: MDA-N
# HCT-116 = test system: HCT-116
# IGROV-1 = test system: IGROV-1
# HL-60 = test system: HL-60
# A498 = test system: A498
# CAKI-1 = test system: CAKI-1
# MDA-MB-231 = test system: MDA-MB-231
# EKVX = test system: EKVX
# T47D = test system: T47D
# UACC-257 = test system: UACC-257
# OVCAR-8 = test system: OVCAR-8
# UO-31 = test system: UO-31
# NCI-H460 = test system: NCI-H460
# 786-0 = test system: 786-0
# HCT-15 = test system: HCT-15
# Hs-578T = test system: Hs-578T
# UACC-62 = test system: UACC-62
# TK-10 = test system: TK-10
# MDA-MB-435 = test system: MDA-MB-435
# COLO 205 = test system: COLO 205
# KM12 = test system: KM12
# SF-268 = test system: SF-268
# K562 = test system: K562
# NCI/ADR-RES = test system: NCI/ADR-RES
# SF-295 = test system: SF-295
# ACHN = test system: ACHN
# RXF 393 = test system: RXF 393
# A549 = test system: A549
# LOX IMVI = test system: LOX IMVI
# HCC 2998 = test system: HCC 2998
# HOP-92 = test system: HOP-92
# SN12C = test system: SN12C
# SW-620 = test system: SW-620
# CCRF-CEM = test system: CCRF-CEM
# SK-MEL-28 = test system: SK-MEL-28
# MOLT-4 = test system: MOLT-4
# DU-145 = test system: DU-145
# SNB-19 = test system: SNB-19
# OVCAR-5 = test system: OVCAR-5
# Malme-3M = test system: Malme-3M
# NCI-H23 = test system: NCI-H23
# HOP-62 = test system: HOP-62
# SK-OV-3 = test system: SK-OV-3
# HT-29 = test system: HT-29
compound,measurement,setting,value
COC(=O)c1ccccc1/C=C1\Cc2ccc3ccccc3c2C1C (stereo not drawn),GI50,SR,32.7 µM (inactive)
same,GI50,M14,37.4 µM (inactive)
same,GI50,SNB-75,72.4 µM (inactive)
same,GI50,NCI-H226,> 100 µM (inactive)
same,GI50,OVCAR-4,45.6 µM (inactive)
same,GI50,SF-539,> 100 µM (inactive)
same,GI50,BT-549,51.8 µM (inactive)
same,GI50,SK-MEL-2,> 100 µM (inactive)
same,GI50,SK-MEL-5,20.9 µM (inactive)
same,GI50,MCF7,50.4 µM (inactive)
same,GI50,U-251,> 100 µM (inactive)
same,GI50,PC-3,60.7 µM (inactive)
same,GI50,NCI-H522,16.6 µM (inactive)
same,GI50,OVCAR-3,25.6 µM (inactive)
same,GI50,RPMI-8226,37 µM (inactive)
same,GI50,MDA-N,43.6 µM (inactive)
same,GI50,HCT-116,8.09 µM (inactive)
same,GI50,IGROV-1,> 100 µM (inactive)
same,GI50,HL-60,24.1 µM (inactive)
same,GI50,A498,> 100 µM (inactive)
same,GI50,CAKI-1,> 100 µM (inactive)
same,GI50,MDA-MB-231,> 100 µM (inactive)
same,GI50,EKVX,37.7 µM (inactive)
same,GI50,T47D,17.4 µM (inactive)
same,GI50,UACC-257,48.9 µM (inactive)
same,GI50,OVCAR-8,> 100 µM (inactive)
same,GI50,UO-31,42.1 µM (inactive)
same,GI50,NCI-H460,> 100 µM (inactive)
same,GI50,786-0,81.5 µM (inactive)
same,GI50,HCT-15,58.5 µM
same,GI50,Hs-578T,34.6 µM (inactive)
same,GI50,UACC-62,57 µM (inactive)
same,GI50,TK-10,> 100 µM (inactive)
same,GI50,MDA-MB-435,45.7 µM (inactive)
same,GI50,COLO 205,60.1 µM (inactive)
same,GI50,KM12,41.4 µM (inactive)
same,GI50,SF-268,> 100 µM (inactive)
same,GI50,K562,37.6 µM (inactive)
same,GI50,NCI/ADR-RES,36 µM (inactive)
same,GI50,SF-295,70.8 µM (inactive)
same,GI50,ACHN,> 100 µM (inactive)
same,GI50,RXF 393,39.2 µM (inactive)
same,GI50,A549,51.3 µM (inactive)
same,GI50,LOX IMVI,> 100 µM (inactive)
same,GI50,HCC 2998,> 100 µM (inactive)
same,GI50,HOP-92,67.9 µM (inactive)
same,GI50,SN12C,98.9 µM (inactive)
same,GI50,SW-620,93.3 µM (inactive)
same,GI50,CCRF-CEM,45.8 µM (inactive)
same,GI50,SK-MEL-28,> 100 µM (inactive)
same,GI50,MOLT-4,27.2 µM (inactive)
same,GI50,DU-145,> 100 µM (inactive)
same,GI50,SNB-19,> 100 µM (inactive)
same,GI50,OVCAR-5,13.2 µM (inactive)
same,GI50,Malme-3M,53.7 µM (inactive)
N#Cc1c(N)c2c(c(-c3ccccc3)c1-c1ccccc1)C(=O)N(O)C2=O,GI50,SR,62.7 µM (inactive)
same,GI50,M14,> 100 µM (inactive)
same,GI50,SNB-75,34 µM (inactive)
same,GI50,NCI-H226,18.8 µM (inactive)
same,GI50,OVCAR-4,66.8 µM (inactive)
same,GI50,SF-539,66.5 µM (inactive)
same,GI50,BT-549,42.2 µM (inactive)
same,GI50,SK-MEL-2,41 µM (inactive)
same,GI50,SK-MEL-5,25.3 µM (inactive)
same,GI50,MCF7,46.1 µM (inactive)
same,GI50,U-251,94.6 µM (inactive)
same,GI50,PC-3,14.1 µM (inactive)
same,GI50,NCI-H522,56.2 µM (inactive)
same,GI50,OVCAR-3,26.9 µM (inactive)
same,GI50,RPMI-8226,42.4 µM (inactive)
same,GI50,MDA-N,82 µM (inactive)
same,GI50,HCT-116,19.5 µM (inactive)
same,GI50,IGROV-1,19.5 µM (inactive)
same,GI50,HL-60,53.7 µM (inactive)
same,GI50,A498,37.8 µM (inactive)
same,GI50,CAKI-1,> 100 µM (inactive)
same,GI50,MDA-MB-231,> 100 µM (inactive)
same,GI50,EKVX,36.6 µM (inactive)
same,GI50,T47D,22.8 µM (inactive)
same,GI50,UACC-257,> 100 µM (inactive)
same,GI50,OVCAR-8,> 100 µM (inactive)
same,GI50,UO-31,37 µM (inactive)
same,GI50,NCI-H460,47.1 µM (inactive)
same,GI50,786-0,47.1 µM (inactive)
same,GI50,HCT-15,70 µM
same,GI50,Hs-578T,18.9 µM (inactive)
same,GI50,UACC-62,39.9 µM (inactive)
same,GI50,TK-10,91.4 µM (inactive)
same,GI50,MDA-MB-435,79.4 µM (inactive)
same,GI50,COLO 205,20.2 µM (inactive)
same,GI50,KM12,29.6 µM (inactive)
same,GI50,SF-268,> 100 µM (inactive)
same,GI50,K562,91.8 µM (inactive)
same,GI50,NCI/ADR-RES,> 100 µM (inactive)
same,GI50,SF-295,38.7 µM (inactive)
same,GI50,ACHN,> 100 µM (inactive)
same,GI50,RXF 393,10.5 µM (inactive)
same,GI50,A549,31 µM (inactive)
same,GI50,LOX IMVI,89.7 µM (inactive)
same,GI50,HCC 2998,17.5 µM (inactive)
same,GI50,HOP-92,64.1 µM (inactive)
same,GI50,SN12C,> 100 µM (inactive)
same,GI50,SW-620,96.8 µM (inactive)
same,GI50,CCRF-CEM,29.8 µM (inactive)
same,GI50,SK-MEL-28,40.7 µM (inactive)
same,GI50,MOLT-4,35.6 µM (inactive)
same,GI50,DU-145,39.4 µM (inactive)
same,GI50,SNB-19,37.8 µM (inactive)
same,GI50,OVCAR-5,63 µM (inactive)
same,GI50,Malme-3M,> 100 µM (inactive)
COc1ccc(NC(C(N)=O)c2cc3cc(Br)ccc3nc2Cl)cc1 (stereo not drawn),GI50,SR,15.6 µM (inactive)
same,GI50,M14,42 µM (inactive)
same,GI50,SNB-75,81.5 µM (inactive)
same,GI50,NCI-H23,> 100 µM (inactive)
same,GI50,NCI-H226,> 100 µM (inactive)
same,GI50,OVCAR-4,68.4 µM (inactive)
same,GI50,SF-539,19.1 µM (inactive)
same,GI50,BT-549,31.4 µM (inactive)
same,GI50,SK-MEL-2,30.3 µM (inactive)
same,GI50,SK-MEL-5,53.5 µM (inactive)
same,GI50,MCF7,32.4 µM (inactive)
same,GI50,PC-3,44.6 µM (inactive)
same,GI50,NCI-H522,34 µM (inactive)
same,GI50,OVCAR-3,60.7 µM (inactive)
same,GI50,RPMI-8226,30.4 µM (inactive)
same,GI50,MDA-N,28.1 µM (inactive)
same,GI50,HOP-62,59.8 µM (inactive)
same,GI50,HCT-116,61 µM (inactive)
same,GI50,IGROV-1,25.5 µM (inactive)
same,GI50,HL-60,25.4 µM (inactive)
same,GI50,SK-OV-3,> 100 µM (inactive)
same,GI50,A498,> 100 µM (inactive)
same,GI50,CAKI-1,> 100 µM (inactive)
same,GI50,MDA-MB-231,90.6 µM (inactive)
same,GI50,EKVX,28.1 µM (inactive)
same,GI50,T47D,58.1 µM (inactive)
same,GI50,UACC-257,71.8 µM (inactive)
same,GI50,OVCAR-8,57.1 µM (inactive)
same,GI50,UO-31,> 100 µM (inactive)
same,GI50,NCI-H460,89.5 µM (inactive)
same,GI50,786-0,> 100 µM (inactive)
same,GI50,HCT-15,47.5 µM
same,GI50,Hs-578T,> 100 µM (inactive)
same,GI50,HT-29,> 100 µM (inactive)
same,GI50,UACC-62,52.7 µM (inactive)
same,GI50,TK-10,3.64 µM (inactive)
same,GI50,MDA-MB-435,22.1 µM (inactive)
same,GI50,COLO 205,41 µM (inactive)
same,GI50,KM12,48.4 µM (inactive)
same,GI50,SF-268,76.4 µM (inactive)
same,GI50,K562,26.7 µM (inactive)
same,GI50,NCI/ADR-RES,39 µM (inactive)
same,GI50,SF-295,38.4 µM (inactive)
same,GI50,ACHN,> 100 µM (inactive)
same,GI50,RXF 393,38.3 µM (inactive)
same,GI50,A549,91.8 µM (inactive)
same,GI50,LOX IMVI,44.6 µM (inactive)
same,GI50,HCC 2998,73.8 µM (inactive)
same,GI50,HOP-92,22.5 µM (inactive)
same,GI50,SN12C,> 100 µM (inactive)
same,GI50,SW-620,38.7 µM (inactive)
same,GI50,CCRF-CEM,26.2 µM (inactive)
same,GI50,SK-MEL-28,> 100 µM (inactive)
same,GI50,MOLT-4,20.2 µM (inactive)
same,GI50,DU-145,> 100 µM (inactive)
same,GI50,SNB-19,> 100 µM (inactive)
same,GI50,OVCAR-5,> 100 µM (inactive)
same,GI50,Malme-3M,> 100 µM (inactive)
